# What was measured:
# Assay in all cases: radiometric filter-binding kinase assay, Kinase HotSpot
# Conditions in all cases: compound 0.5 µM; ATP 10 µM
# [1] = target: MELK (human) (UniProt Q14680)
# [2] = target: INSRR (human) (UniProt P14616)
# [3] = target: EPHA7 (human) (UniProt Q15375)
# [4] = target: CDC42BPB (human) (UniProt Q9Y5S2)
# [5] = target: INSR (human) (UniProt P06213)
# [6] = target: PLK2 (human) (UniProt Q9NYY3)
# [7] = target: PASK (human) (UniProt Q96RG2)
# [8] = target: CDK5 CDK5R1 p35 (human) (UniProt Q00535+Q15078)
# [9] = target: DCLK2 (human) (UniProt Q8N568)
# [10] = target: RPS6KA6 KD1 KD2 (human) (UniProt Q9UK32)
# [11] = target: BRSK1 (human) (UniProt Q8TDC3)
# [12] = target: MAP3K10 (human) (UniProt Q02779)
# [13] = target: SRPK2 (human) (UniProt P78362)
# [14] = target: CDK2 CCNA2 (human) (UniProt P24941+P20248)
# [15] = target: RPS6KA3 KD1 KD2 (human) (UniProt P51812)
# [16] = target: MAP3K9 (human) (UniProt P80192)
# [17] = target: CAMK2G (human) (UniProt Q13555)
# [18] = target: MATK (human) (UniProt P42679)
# MATK (human), sequence (P42679 whole entry, looked up): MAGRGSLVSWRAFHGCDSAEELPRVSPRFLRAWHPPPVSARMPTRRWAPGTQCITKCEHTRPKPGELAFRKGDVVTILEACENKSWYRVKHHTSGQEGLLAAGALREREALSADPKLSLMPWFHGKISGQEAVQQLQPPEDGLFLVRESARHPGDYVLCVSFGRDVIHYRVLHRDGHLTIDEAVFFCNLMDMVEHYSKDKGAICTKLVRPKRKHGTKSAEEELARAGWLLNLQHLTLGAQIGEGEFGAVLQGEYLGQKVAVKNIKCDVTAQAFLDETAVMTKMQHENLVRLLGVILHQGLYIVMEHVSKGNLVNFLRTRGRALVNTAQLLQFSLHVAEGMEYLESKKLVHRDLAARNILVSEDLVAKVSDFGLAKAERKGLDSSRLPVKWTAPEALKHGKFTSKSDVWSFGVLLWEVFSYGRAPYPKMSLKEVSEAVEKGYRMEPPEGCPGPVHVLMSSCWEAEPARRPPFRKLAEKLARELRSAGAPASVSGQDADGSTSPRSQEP
# [19] = target: NEK9 (human) (UniProt Q8TD19)
# [20] = target: AURKA (human) (UniProt O14965)
# [21] = target: PRKD3 (human) (UniProt O94806)
# [22] = target: PDGFRA (human) (UniProt P16234)
# [23] = target: MUSK (human) (UniProt O15146)
# [24] = target: MARK2 (human) (UniProt Q7KZI7)
# MARK2 (human), sequence (Q7KZI7 whole entry, looked up): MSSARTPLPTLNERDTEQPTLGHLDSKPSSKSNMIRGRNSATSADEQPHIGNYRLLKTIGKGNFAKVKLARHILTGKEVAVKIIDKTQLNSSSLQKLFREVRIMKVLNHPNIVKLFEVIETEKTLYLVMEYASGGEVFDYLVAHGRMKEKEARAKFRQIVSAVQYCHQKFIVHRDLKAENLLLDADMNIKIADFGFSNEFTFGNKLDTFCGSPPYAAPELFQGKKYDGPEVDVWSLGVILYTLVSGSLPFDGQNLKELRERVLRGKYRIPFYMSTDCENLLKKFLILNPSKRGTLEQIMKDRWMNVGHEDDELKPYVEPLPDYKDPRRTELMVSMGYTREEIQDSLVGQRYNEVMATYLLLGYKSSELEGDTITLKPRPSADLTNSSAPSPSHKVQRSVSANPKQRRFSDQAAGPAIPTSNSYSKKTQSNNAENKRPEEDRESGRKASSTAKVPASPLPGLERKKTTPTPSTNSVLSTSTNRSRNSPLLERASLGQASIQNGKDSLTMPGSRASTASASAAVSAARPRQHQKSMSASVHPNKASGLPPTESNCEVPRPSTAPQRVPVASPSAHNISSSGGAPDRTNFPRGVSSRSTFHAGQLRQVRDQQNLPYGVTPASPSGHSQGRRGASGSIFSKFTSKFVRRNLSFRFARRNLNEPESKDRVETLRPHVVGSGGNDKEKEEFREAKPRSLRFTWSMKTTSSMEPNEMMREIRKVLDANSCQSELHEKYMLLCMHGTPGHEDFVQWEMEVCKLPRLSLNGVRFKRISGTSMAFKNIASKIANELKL
# [25] = target: PDPK1 (human) (UniProt O15530)
# PDPK1 (human), sequence (O15530 whole entry, looked up): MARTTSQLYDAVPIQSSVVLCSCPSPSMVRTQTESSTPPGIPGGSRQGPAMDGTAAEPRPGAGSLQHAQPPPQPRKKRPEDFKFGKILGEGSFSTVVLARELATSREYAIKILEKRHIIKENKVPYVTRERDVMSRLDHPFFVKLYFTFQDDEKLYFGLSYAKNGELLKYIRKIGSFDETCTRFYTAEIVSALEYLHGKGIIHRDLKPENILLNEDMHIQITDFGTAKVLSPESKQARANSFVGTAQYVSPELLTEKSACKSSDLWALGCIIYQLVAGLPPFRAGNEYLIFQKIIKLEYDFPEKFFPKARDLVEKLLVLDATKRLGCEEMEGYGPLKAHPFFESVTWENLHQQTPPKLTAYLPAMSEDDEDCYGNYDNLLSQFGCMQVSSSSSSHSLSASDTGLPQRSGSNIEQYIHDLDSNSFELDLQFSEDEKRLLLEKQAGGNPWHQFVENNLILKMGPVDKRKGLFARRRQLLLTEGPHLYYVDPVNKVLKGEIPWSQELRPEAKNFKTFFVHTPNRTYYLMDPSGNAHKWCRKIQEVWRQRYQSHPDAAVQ
# [26] = target: PAK2 (human) (UniProt Q13177)
# [27] = target: PTK2 (human) (UniProt Q05397)
# [28] = target: ACVR1B (human) (UniProt P36896)
# ACVR1B (human), sequence (P36896 whole entry, looked up): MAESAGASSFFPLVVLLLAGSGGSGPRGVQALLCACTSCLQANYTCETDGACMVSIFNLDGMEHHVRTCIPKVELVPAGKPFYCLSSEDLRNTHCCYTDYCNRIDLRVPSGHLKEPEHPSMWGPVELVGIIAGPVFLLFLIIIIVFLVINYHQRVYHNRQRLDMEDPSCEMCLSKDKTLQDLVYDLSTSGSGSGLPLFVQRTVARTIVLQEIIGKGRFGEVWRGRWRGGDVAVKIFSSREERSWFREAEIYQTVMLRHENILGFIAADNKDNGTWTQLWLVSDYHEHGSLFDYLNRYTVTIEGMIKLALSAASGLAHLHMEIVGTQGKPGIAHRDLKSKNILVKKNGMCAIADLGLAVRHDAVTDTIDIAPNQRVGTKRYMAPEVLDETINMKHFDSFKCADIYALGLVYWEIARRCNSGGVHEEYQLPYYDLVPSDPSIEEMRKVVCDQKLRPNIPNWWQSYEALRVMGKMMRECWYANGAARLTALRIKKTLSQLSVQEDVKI
# [29] = target: FRK (human) (UniProt P42685)
# [30] = target: CAMKK1 (human) (UniProt Q8N5S9)
# [31] = target: STK39 (human) (UniProt Q9UEW8)
# [32] = target: AKT1 (human) (UniProt P31749)
# AKT1 (human), sequence (P31749 whole entry, looked up): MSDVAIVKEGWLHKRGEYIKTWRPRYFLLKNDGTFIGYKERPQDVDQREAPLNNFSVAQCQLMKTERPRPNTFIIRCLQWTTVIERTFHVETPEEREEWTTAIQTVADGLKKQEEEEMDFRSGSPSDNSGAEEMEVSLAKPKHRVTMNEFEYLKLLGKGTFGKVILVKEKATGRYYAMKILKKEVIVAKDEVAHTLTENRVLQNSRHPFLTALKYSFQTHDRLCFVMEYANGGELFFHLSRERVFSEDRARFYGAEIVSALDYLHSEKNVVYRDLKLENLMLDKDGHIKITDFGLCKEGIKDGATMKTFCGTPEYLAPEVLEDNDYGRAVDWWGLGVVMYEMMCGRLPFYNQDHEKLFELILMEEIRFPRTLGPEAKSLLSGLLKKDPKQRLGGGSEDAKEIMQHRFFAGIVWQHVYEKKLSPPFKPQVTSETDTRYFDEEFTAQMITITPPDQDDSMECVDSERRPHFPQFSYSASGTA
# [33] = target: PRKD1 (human) (UniProt Q15139)
# PRKD1 (human), sequence (Q15139 whole entry, looked up): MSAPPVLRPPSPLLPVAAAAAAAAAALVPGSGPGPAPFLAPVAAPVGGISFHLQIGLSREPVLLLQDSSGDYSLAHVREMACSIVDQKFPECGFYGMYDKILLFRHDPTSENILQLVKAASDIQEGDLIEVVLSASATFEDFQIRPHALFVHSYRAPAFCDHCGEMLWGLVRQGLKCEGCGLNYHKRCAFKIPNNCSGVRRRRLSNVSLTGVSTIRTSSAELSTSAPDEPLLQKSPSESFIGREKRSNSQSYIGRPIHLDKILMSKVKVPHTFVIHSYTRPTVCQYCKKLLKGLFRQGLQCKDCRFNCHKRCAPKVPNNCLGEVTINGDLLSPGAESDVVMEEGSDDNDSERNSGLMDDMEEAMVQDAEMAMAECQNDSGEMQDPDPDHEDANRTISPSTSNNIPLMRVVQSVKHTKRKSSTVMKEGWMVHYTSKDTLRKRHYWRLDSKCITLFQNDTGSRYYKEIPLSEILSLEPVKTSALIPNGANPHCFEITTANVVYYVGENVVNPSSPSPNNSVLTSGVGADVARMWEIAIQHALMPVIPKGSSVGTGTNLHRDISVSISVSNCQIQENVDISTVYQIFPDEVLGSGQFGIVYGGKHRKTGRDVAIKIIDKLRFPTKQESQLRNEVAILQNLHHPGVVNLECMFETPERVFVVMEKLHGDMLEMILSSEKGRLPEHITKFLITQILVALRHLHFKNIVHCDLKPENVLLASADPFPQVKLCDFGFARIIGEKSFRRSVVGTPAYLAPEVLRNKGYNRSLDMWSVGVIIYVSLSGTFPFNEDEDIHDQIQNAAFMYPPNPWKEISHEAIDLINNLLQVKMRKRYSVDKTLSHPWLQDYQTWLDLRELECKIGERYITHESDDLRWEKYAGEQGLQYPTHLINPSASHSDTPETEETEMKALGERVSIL
# [34] = target: TAOK1 (human) (UniProt Q7L7X3)
# [35] = target: PKN2 (human) (UniProt Q16513)
# [36] = target: CAMK4 (human) (UniProt Q16566)
# [37] = target: MKNK2 (human) (UniProt Q9HBH9)
# [38] = target: WNK2 (human) (UniProt Q9Y3S1)
# [39] = target: MAP3K5 (human) (UniProt Q99683)
# [40] = target: SIK2 (human) (UniProt Q9H0K1)
# [41] = target: IKBKB (human) (UniProt O14920)
# [42] = target: ABL1 (human) (UniProt P00519)
# INSRR (human), sequence (P14616 whole entry, looked up): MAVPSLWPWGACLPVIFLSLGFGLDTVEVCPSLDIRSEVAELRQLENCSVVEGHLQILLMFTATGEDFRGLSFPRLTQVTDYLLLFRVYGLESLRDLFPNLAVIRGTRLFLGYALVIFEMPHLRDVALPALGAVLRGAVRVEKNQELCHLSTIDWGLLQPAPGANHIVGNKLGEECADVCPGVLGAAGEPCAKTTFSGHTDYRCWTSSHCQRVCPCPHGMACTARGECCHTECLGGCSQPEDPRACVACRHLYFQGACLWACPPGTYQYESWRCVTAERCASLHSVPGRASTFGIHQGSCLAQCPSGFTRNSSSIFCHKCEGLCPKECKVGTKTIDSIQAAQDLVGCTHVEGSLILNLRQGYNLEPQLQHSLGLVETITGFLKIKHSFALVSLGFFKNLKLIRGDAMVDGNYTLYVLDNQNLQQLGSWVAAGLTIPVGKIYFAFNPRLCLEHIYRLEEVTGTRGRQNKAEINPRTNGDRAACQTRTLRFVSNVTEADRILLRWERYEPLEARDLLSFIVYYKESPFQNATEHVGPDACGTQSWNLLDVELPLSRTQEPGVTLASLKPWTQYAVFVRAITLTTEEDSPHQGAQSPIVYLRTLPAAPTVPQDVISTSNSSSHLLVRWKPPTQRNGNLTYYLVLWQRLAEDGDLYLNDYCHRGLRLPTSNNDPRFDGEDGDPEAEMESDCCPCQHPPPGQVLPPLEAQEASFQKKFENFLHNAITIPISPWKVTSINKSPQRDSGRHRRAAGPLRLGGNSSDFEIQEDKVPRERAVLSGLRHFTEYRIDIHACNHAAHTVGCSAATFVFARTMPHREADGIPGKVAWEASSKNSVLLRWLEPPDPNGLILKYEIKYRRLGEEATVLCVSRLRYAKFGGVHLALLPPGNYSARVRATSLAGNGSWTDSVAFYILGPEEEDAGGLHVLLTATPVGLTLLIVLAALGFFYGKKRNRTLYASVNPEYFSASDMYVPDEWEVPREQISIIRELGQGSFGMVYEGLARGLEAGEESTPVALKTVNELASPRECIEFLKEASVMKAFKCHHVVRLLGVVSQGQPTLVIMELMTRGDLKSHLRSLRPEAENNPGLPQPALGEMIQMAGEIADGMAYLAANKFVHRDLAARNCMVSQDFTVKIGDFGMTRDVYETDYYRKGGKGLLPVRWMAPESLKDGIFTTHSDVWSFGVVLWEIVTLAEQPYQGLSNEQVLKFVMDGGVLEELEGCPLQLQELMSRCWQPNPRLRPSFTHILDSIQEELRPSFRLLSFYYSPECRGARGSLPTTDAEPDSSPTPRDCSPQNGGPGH
compound,measurement,setting,value
FC(F)(F)c1ccc(/C=C/c2nc(COc3ccc(CCCCn4ccnn4)cc3)co2)cc1,residual activity,[1],85.4%
same,residual activity,[2],101%
same,residual activity,[3],95.2%
same,residual activity,[4],100%
same,residual activity,[5],99.6%
same,residual activity,[6],99.7%
same,residual activity,[7],104%
same,residual activity,[8],99.4%
same,residual activity,[9],102%
same,residual activity,[10],100%
same,residual activity,[11],103%
same,residual activity,[12],98.9%
same,residual activity,[13],101%
same,residual activity,[14],87.9%
same,residual activity,[15],96.8%
same,residual activity,[16],105%
same,residual activity,[17],99%
same,residual activity,[18],95%
same,residual activity,[19],95.5%
same,residual activity,[20],111%
same,residual activity,[21],93.3%
same,residual activity,[22],104%
same,residual activity,[23],104%
same,residual activity,[24],105%
same,residual activity,[25],104%
same,residual activity,[26],113%
same,residual activity,[27],101%
same,residual activity,[28],92.8%
same,residual activity,[29],99%
same,residual activity,[30],96.7%
same,residual activity,[31],88.3%
same,residual activity,[32],93.2%
same,residual activity,[33],93.2%
same,residual activity,[34],102%
same,residual activity,[35],107%
same,residual activity,[36],97.7%
same,residual activity,[37],101%
same,residual activity,[38],95.9%
same,residual activity,[39],97.2%
same,residual activity,[40],103%
same,residual activity,[41],98.6%
N/C(=N\N=C/c1ccc(-c2cccc([N+](=O)[O-])c2)o1)N[N+](=O)[O-],residual activity,[1],102%
same,residual activity,[42],101%
same,residual activity,[2],99.2%
same,residual activity,[3],97.9%
same,residual activity,[4],95.4%
same,residual activity,[5],92%
same,residual activity,[6],107%
same,residual activity,[7],88.4%
same,residual activity,[8],89.2%
same,residual activity,[9],101%
same,residual activity,[10],96.9%
same,residual activity,[11],97.2%
same,residual activity,[12],101%
same,residual activity,[13],101%
same,residual activity,[15],101%
same,residual activity,[17],82.1%
same,residual activity,[18],94.3%
same,residual activity,[19],91.8%
same,residual activity,[21],93.9%
same,residual activity,[22],93.2%
same,residual activity,[23],94.4%
same,residual activity,[24],108%
same,residual activity,[25],94.6%
same,residual activity,[26],103%
same,residual activity,[28],101%
same,residual activity,[29],90.1%
same,residual activity,[30],106%
same,residual activity,[31],91.8%
same,residual activity,[32],99.7%
same,residual activity,[33],103%
same,residual activity,[34],89.6%
same,residual activity,[35],92.6%
same,residual activity,[36],95.2%
same,residual activity,[37],89.3%
same,residual activity,[38],106%
same,residual activity,[39],92.5%
same,residual activity,[40],91.6%
same,residual activity,[41],86%
CN[C@@H]1C[C@H]2O[C@@](C)([C@@H]1OC)n1c3ccccc3c3c4c(c5c6ccccc6n2c5c31)C(=O)NC4,residual activity,[5],3.14%
same,residual activity,[8],1.92%
same,residual activity,[15],-1.27%
same,residual activity,[23],12.2%
same,residual activity,[25],4.41%
same,residual activity,[29],5.5%
same,residual activity,[30],-3.13%
same,residual activity,[32],7.49%
same,residual activity,[39],4.72%
COc1cc2c(Nc3ccc(Br)cc3F)ncnc2cc1OCC1CCN(C)CC1,residual activity,[1],94.4%
same,residual activity,[2],105%
same,residual activity,[3],31.8%
same,residual activity,[4],98%
same,residual activity,[5],102%
same,residual activity,[6],103%
same,residual activity,[7],102%
same,residual activity,[8],107%
same,residual activity,[9],104%
same,residual activity,[10],99.3%
same,residual activity,[11],97.1%
same,residual activity,[12],102%
same,residual activity,[13],106%
same,residual activity,[14],94.6%
same,residual activity,[15],97.8%
same,residual activity,[16],96.1%
same,residual activity,[17],112%
same,residual activity,[18],101%
same,residual activity,[19],101%
same,residual activity,[21],91.7%
same,residual activity,[22],28.6%
same,residual activity,[23],94.6%
same,residual activity,[24],107%
same,residual activity,[25],91.3%
same,residual activity,[26],103%
same,residual activity,[27],100%
same,residual activity,[28],107%
same,residual activity,[29],79.5%
same,residual activity,[30],90.4%
same,residual activity,[31],97.4%
same,residual activity,[32],94.7%
same,residual activity,[33],99.3%
same,residual activity,[34],103%
same,residual activity,[35],99.7%
same,residual activity,[36],101%
same,residual activity,[37],86.9%
same,residual activity,[38],100%
same,residual activity,[39],102%
same,residual activity,[40],17.6%
same,residual activity,[41],87.7%
COc1cc2c(cc1OC)-c1[nH]nc(Nc3cccc(F)c3)c1C2,residual activity,[1],72.1%
same,residual activity,[2],99.2%
same,residual activity,[3],98%
same,residual activity,[4],99.2%
same,residual activity,[5],101%
same,residual activity,[6],97.1%
same,residual activity,[7],93.3%
same,residual activity,[8],102%
same,residual activity,[9],88.2%
same,residual activity,[10],93.6%
same,residual activity,[11],89.3%
same,residual activity,[12],87.1%
same,residual activity,[13],87.8%
same,residual activity,[14],87.5%
same,residual activity,[15],94.7%
same,residual activity,[16],90%
same,residual activity,[17],101%
same,residual activity,[18],92.1%
same,residual activity,[19],102%
same,residual activity,[20],94.6%
same,residual activity,[21],93.1%
same,residual activity,[22],33.4%
same,residual activity,[23],82.7%
same,residual activity,[24],77.2%
same,residual activity,[25],95.9%
same,residual activity,[26],99.6%
same,residual activity,[27],88.2%
same,residual activity,[28],92.9%
same,residual activity,[29],67.9%
same,residual activity,[30],81.5%
same,residual activity,[31],105%
same,residual activity,[32],93.3%
same,residual activity,[33],93.6%
same,residual activity,[34],76.3%
same,residual activity,[35],92%
same,residual activity,[36],106%
same,residual activity,[37],91.5%
same,residual activity,[38],104%
same,residual activity,[39],99.9%
same,residual activity,[40],38.6%
same,residual activity,[41],98.2%

# — the kinase profiling compilation of Christmann-Franck et al. (2016)
